# Patent publication US7291461B2, “Methods for identifying small molecules that modulate premature translation termination and nonsense mRNA decay” (PTC Therapeutics, Inc., priority 2002, dated 2007)
# Entries after “also recorded” stand apart in the source; their conditions may differ.
# Experiments:
# [1] = system: luciferase RNA containing a UGA premature termination codon; assay: in vitro translation nonsense suppression assay in HeLa cell extract; type: biochemical, human; details: FIG. 4
# Procedure: This Example describes a method of preparing a cell extract to perform in vitro translation reactions to monitor nonsense suppression or to produce proteins in vitro. This method is different from other methods used to prepare translation extracts for several reasons.
# HeLa S3 cells were grown to a density of 10^6 cells/ml in DMEM; 5% CO2, 10% FBS, 1×P/S in a spinner flask. Cells were harvested by spinning at 1000×g. Cells were washed twice with phosphate buffered saline. The cell pellet sat on ice for 12 to 24 hours before proceeding. By letting the cells sit on ice, the activity of the extract is increased two-fold. The length of time on ice can range from 0 hours to 1 week. The cells were resuspended in 1.5 volumes (packed cell volume) of hypotonic buffer (10 mM HEPES (KOH) pH 7.4; 15 mM KCl; 1.5 mM Mg(OAc)2; 0.5 mM Pefabloc (Roche); 2 mM DTT). Cells were allowed to swell for 5 minutes on ice and dounce homogenized with 10 to 100 strokes using a tight-fitting pestle. The cells were spun for 10 minutes at 12000×g at 4° C. in a Sorvall SS-34 rotor. […]
# Further, in the presence of the aminoglycoside gentamicin, nonsense suppression activity (as measured by the amount of luciferase activity produced from a luciferase RNA containing a UGA premature termination codon) is increased 2 to 3 fold above untreated extracts (see FIG. 4). […]
# [2] = system: mRNA containing a UGA premature termination codon; assay: biochemical assay: rabbit reticulocyte lysate and nonsense-containing luciferase reporter mRNA
# Description: (§1) Two assays were developed for use in high throughput screens to identify small molecules that promote nonsense suppression. Each assay utilized luciferase because it is a functional reporter gene assay (light is only produced if the protein is functional) and it is extremely sensitive (Light intensity is proportional to luciferase concentration in the nM range). The first assay was a cell-based luciferase reporter assay and the second was a biochemical assay consisting of rabbit reticulocyte lysate and a nonsense-containing luciferase reporter mRNA. In the cell-based assay, a luciferase reporter construct containing a UGA premature termination codon was stably transfected in 293T Human Embryonic Kidney cells. In the biochemical assay, mRNA containing a UGA premature termination codon was used as a reporter in an in vitro translation reaction using rabbit reticulocyte lysate supplemented with tRNA, hemin, creatine kinase, amino acids, KOAc, Mg(OAc)2, and creatine phosphate. […] Synthetic mRNA was prepared in vitro using the T7 promoter and the MegaScript in vitro transcription kit (Ambion).
# [3] = system: luciferase reporter construct containing a UGA premature termination codon in 293T Human Embryonic Kidney cells; assay: cell-based luciferase reporter assay, stable cell line
# Description: as §1
# Compound A and Compound B increase the level of nonsense suppression in the biochemical assay three to four fold over untreated extracts. […]
# [4] = system: UGA, UAA or UAG nonsense alleles of luciferase; assay: nonsense suppression in cells transiently transfected with luciferase nonsense alleles in each codon context; type: cell-based; details: 3 mg/ml, overnight
# Procedure: Cells were transiently transfected with plasmids harboring the UGA, UAA or UAG nonsense alleles of luciferase in each codon context (UGAA, UGAC, UGAG, UGAU, UAGA, UAGC, UAGG, UAGU, UAAA, UAAC, UAAG, and UAAU) then the cells were treated overnight with Compound A, and gentamicin. The following day, the level of suppression was determined by measuring the amount of luminescence produced. The fold suppression above control cells treated with solvent was calculated and is numerically reported.
# dystrophin [5] = assay: dystrophin immunostaining in mdx mouse primary skeletal muscle cultures; type: cell-based; details: 200 μM
# Procedure: FIG. 9. Immunohistochemistry of myotubes from primary cell culture from mdx muscle. The presence of dystrophin was detected by mAb to the COOH-terminus of dystrophin ([…]) followed by a rhodamine-conjugated anti-mouse IgG. […] Little dystrophin was detected in untreated mdx myotubes (right).
# Mouse primary skeletal muscle cultures derived from 1-day old mdx mice were prepared as described previously (Barton-Davis et al., 1999, J Clin Invest. 104(4):375-381). Cells were cultured for 10 days in the presence of Compound A (20 μM). Culture medium was replaced every four days and the presence of dystrophin in myoblast cultures was detected by immunostaining as described previously (Barton-Davis et al., 1999, J Clin Invest. 104(4):375-381). A primary monoclonal antibody to the C-terminus of the dystrophin protein (F19A12) was used undiluted and rhodamine conjugated anti-mouse IgG was used as the secondary antibody. The F19A12 antibody will detect the full-length protein produced by suppression of the nonsense codon. Staining was viewed using a Leica DMR micropscope, digital camera, and associated imaging software at the University of Pennsylvania.
# dystrophin [6] = assay: dystrophin immunofluorescence of tibialis anterior muscle of mdx mice treated by Alzet osmotic pumps; type: in vivo, mouse; details: tissue exposure approximately 200 μM, osmotic pump
# Procedure: FIG. 10A-10F. Immunohistochemistry of muscle cross-sections to view dystrophin. […] Muscle from untreated mdx mice (panel E) or from cross sections not treated with primary antibody (panel F) show only minimal staining.
# As previously described (Barton-Davis et al., 1999, J Clin Invest. 104(4):375-381), compound was delivered by Alzet osmotic pumps implanted under the skin of anesthetized mice. Two doses of Compound A were administered. Gentamicin served as a positive control and pumps filled with solvent only served as the negative control. Pumps were loaded with appropriate compound such that the calculated doses to which tissue was exposed were 10 μM and 20 μM. The gentamicin concentration was calculated to achieve tissue exposure of approximately 200 μM. In the initial experiment, mice were treated for 14 days, after which animals were anesthetized with ketamine and exsanguinated. The tibialis anterior (TA) muscle of the experimental animals was then excised, frozen, and used for immunofluorescence analysis of dystrophin incorporation into striated muscle. The presence of dystrophin in TA muscles was detected by immunostaining, as described previously (Barton-Davis et al., 1999, J Clin Invest. 104(4):375-381; see mdx primary cells in Section 7.8 supra).
substance,measurement,setting,value
gentamicin,nonsense suppression activity (luciferase activity from luciferase RNA containing a UGA premature termination codon) above untreated extracts,[1],2 to 3 fold
same,luciferase activity on addition of compound,[2],increased luciferase activity
same,luciferase activity on addition of compound,[3],increased luciferase activity
same,fold suppression above control cells treated with solvent,[4]; context UAAA,0.71 fold
same,fold suppression above control cells treated with solvent,[4]; context UAAC,2.32 fold
same,fold suppression above control cells treated with solvent,[4]; context UAAG,0.01 fold
same,fold suppression above control cells treated with solvent,[4]; context UAAU,0.92 fold
same,fold suppression above control cells treated with solvent,[4]; context UAGA,1.31 fold
same,fold suppression above control cells treated with solvent,[4]; context UAGC,2.16 fold
same,fold suppression above control cells treated with solvent,[4]; context UAGG,0.64 fold
same,fold suppression above control cells treated with solvent,[4]; context UAGU,0.54 fold
same,fold suppression above control cells treated with solvent,[4]; context UGAA,0.76 fold
same,fold suppression above control cells treated with solvent,[4]; context UGAC,1.91 fold
same,fold suppression above control cells treated with solvent,[4]; context UGAG,0.45 fold
same,fold suppression above control cells treated with solvent,[4]; context UGAU,6.74 fold
same,"presence of full-length dystrophin in myotubes (immunostaining, C-terminus antibody)",dystrophin [5],full-length dystrophin protein is produced and localized to the muscle myotubes; also recorded: Dystrophin was present
same,dystrophin in TA muscle (immunostaining),dystrophin [6],positive staining for dystrophin
